In ChEMBL document CHEMBL3044663, “Synthesis and antimicrobial activities of novel bisacridine-1,8-dione derivatives” (2011):
Activity calls are given as the source filed them. The calls are words filed in the database; no cut-off is given here.

How the values were obtained:
Assay type in all cases: functional
[1] = tested on: Bacillus subtilis; assay: Antibacterial activity against Bacillus subtilis RSKK 240 after 24 hr by disk diffusion method; further: test concentration or dose not given here
[2] = tested on: Staphylococcus aureus; assay: Antibacterial activity against Staphylococcus aureus ATCC 25923 after 24 hr by disk diffusion method; further: test concentration or dose not given here
[3] = tested on: Escherichia coli; assay: Antibacterial activity against Escherichia coli ATCC 35218 after 24 hr by disk diffusion method; on DIZ: test concentration or dose not given here
[4] = tested on: Salmonella; assay: Antibacterial activity against Salmonella 21.3 after 24 hr by disk diffusion method; on DIZ: test concentration or dose not given here
[5] = tested on: Bacillus cereus; assay: Antibacterial activity against Bacillus cereus RSKK 863 after 24 hr by disk diffusion method; further: test concentration or dose not given here
[6] = tested on: Pseudomonas aeruginosa; assay: Antibacterial activity against Pseudomonas aeruginosa ATCC 27853 after 24 hr by disk diffusion method; on DIZ: test concentration or dose not given here
[7] = tested on: Staphylococcus epidermidis; assay: Antibacterial activity against Staphylococcus epidermidis Mu 30 after 24 hr by disk diffusion method; further: test concentration or dose not given here
[8] = tested on: Candida albicans; assay: Antifungal activity against Candida albicans 16231 after 24 hr by disk diffusion method; on DIZ: test concentration or dose not given here
[9] = tested on: Saccharomyces cerevisiae; assay: Antifungal activity against Saccharomyces cerevisiae TP (3-2) after 24 hr by disk diffusion method; further: test concentration or dose not given here
[10] = tested on: Shigella sonnei; assay: Antibacterial activity against Shigella sonnei RSKK 877 after 24 hr by disk diffusion method; on DIZ: test concentration or dose not given here; on diameter of the inhibition zone (DIZ): test concentration or dose not given here

Row | Molecule | diameter of the inhibition zone (DIZ) [1] | diameter of the inhibition zone (DIZ) [2] | diameter of the inhibition zone (DIZ) [3] | diameter of the inhibition zone (DIZ) [4] | diameter of the inhibition zone (DIZ) [5] | diameter of the inhibition zone (DIZ) [6] | diameter of the inhibition zone (DIZ) [7] | diameter of the inhibition zone (DIZ) [8] | diameter of the inhibition zone (DIZ) [9] | diameter of the inhibition zone (DIZ) [10] | inhibition zone (IZ) [3] [mm] | inhibition zone (IZ) [4] [mm] | inhibition zone (IZ) [6] [mm] | inhibition zone (IZ) [10] [mm]
1 | O=C1CCCC2=C1C(c1cccc(C3C4=C(CCCC4=O)N(c4ccc(C(=O)O)cc4)C4=C3C(=O)CCC4)c1)C1=C(CCCC1=O)N2c1ccc(C(=O)O)cc1 | 8 mm | 11 mm | 9 mm | 8 mm | inactive | 10 mm | 12 mm | 10 mm | inactive | 9 mm | – | – | – | –
2 | CC1(C)CC(=O)C2=C(C1)N(c1ccc(Cl)cc1)C1=C(C(=O)CC(C)(C)C1)C2c1ccc(C2C3=C(CC(C)(C)CC3=O)N(c3ccc(Cl)cc3)C3=C2C(=O)CC(C)(C)C3)cc1 | inactive | 9 mm | 12 mm | 12 mm | inactive | 9 mm | 7 mm | 10 mm | 14 mm | 10 mm | – | – | – | –
3 | COc1ccccc1N1C2=C(C(=O)CC(C)(C)C2)C(c2cccc(C3C4=C(CC(C)(C)CC4=O)N(c4ccccc4OC)C4=C3C(=O)CC(C)(C)C4)c2)C2=C1CC(C)(C)CC2=O | 8 mm | 9 mm | 14 mm | 8 mm | 13 mm | 10 mm | 13 mm | 15 mm | 14 mm | 12 mm | – | – | – | –
4 | N#Cc1ccccc1N1C2=C(C(=O)CCC2)C(c2cccc(C3C4=C(CCCC4=O)N(c4ccccc4C#N)C4=C3C(=O)CCC4)c2)C2=C1CCCC2=O | inactive | 10 mm | 8 mm | 11 mm | inactive | 14 mm | 10 mm | 13 mm | 20 mm | 10 mm | – | – | – | –
5 | GENTAMICIN | – | – | – | – | – | – | – | – | – | – | 15 | 10 | 20 | 11
6 | COc1cccc(N2C3=C(C(=O)CC(C)(C)C3)C(c3cccc(C4C5=C(CC(C)(C)CC5=O)N(c5cccc(OC)c5)C5=C4C(=O)CC(C)(C)C5)c3)C3=C2CC(C)(C)CC3=O)c1 | inactive | inactive | 10 mm | inactive | 13 mm | 7 mm | inactive | inactive | inactive | 12 mm | – | – | – | –
7 | Cc1cccc(N2C3=C(C(=O)CCC3)C(c3cccc(C4C5=C(CCCC5=O)N(c5cccc(C)n5)C5=C4C(=O)CCC5)c3)C3=C2CCCC3=O)n1 | inactive | 18 mm | 12 mm | 9 mm | inactive | 9 mm | 8 mm | 14 mm | 17 mm | 9 mm | – | – | – | –
8 | COc1cccc(N2C3=C(C(=O)CCC3)C(c3cccc(C4C5=C(CCCC5=O)N(c5cccc(OC)c5)C5=C4C(=O)CCC5)c3)C3=C2CCCC3=O)c1 | 11 mm | 16 mm | 14 mm | 12 mm | inactive | 9 mm | 11 mm | 12 mm | 11 mm | 10 mm | – | – | – | –
9 | CC1(C)CC(=O)C2=C(C1)N(c1ccc(Br)cc1)C1=C(C(=O)CC(C)(C)C1)C2c1ccc(C2C3=C(CC(C)(C)CC3=O)N(c3ccc(Br)cc3)C3=C2C(=O)CC(C)(C)C3)cc1 | inactive | 12 mm | 10 mm | 10 mm | inactive | 10 mm | 10 mm | 11 mm | 16 mm | 12 mm | – | – | – | –
10 | O=C1CCCC2=C1C(c1cccc(C3C4=C(CCCC4=O)N(c4cccc(C(=O)O)c4)C4=C3C(=O)CCC4)c1)C1=C(CCCC1=O)N2c1cccc(C(=O)O)c1 | 9 mm | inactive | 12 mm | 11 mm | 8 mm | 9 mm | inactive | 14 mm | 11 mm | inactive | – | – | – | –
11 | CC1(C)S[C@@H]2[C@H](NC(=O)[C@H](N)c3ccccc3)C(=O)N2[C@H]1C(=O)O [AMPICILLIN] | 24 mm | 24 mm | 27 mm | 23 mm | 20 mm | – | – | – | – | 22 mm | – | – | – | –
12 | CC1(C)CC(=O)C2=C(C1)N(c1ccc(C(=O)O)cc1)C1=C(C(=O)CC(C)(C)C1)C2c1cccc(C2C3=C(CC(C)(C)CC3=O)N(c3ccc(C(=O)O)cc3)C3=C2C(=O)CC(C)(C)C3)c1 | 11 mm | inactive | 10 mm | 9 mm | 9 mm | inactive | 11 mm | 12 mm | 13 mm | 11 mm | – | – | – | –
13 | CC1(C)CC(=O)C2=C(C1)N(c1cccc(C#N)c1)C1=C(C(=O)CC(C)(C)C1)C2c1cccc(C2C3=C(CC(C)(C)CC3=O)N(c3cccc(C#N)c3)C3=C2C(=O)CC(C)(C)C3)c1 | inactive | 10 mm | 13 mm | 10 mm | inactive | 8 mm | 8 mm | 16 mm | 14 mm | 9 mm | – | – | – | –
14 | N#Cc1cccc(N2C3=C(C(=O)CCC3)C(c3cccc(C4C5=C(CCCC5=O)N(c5cccc(C#N)c5)C5=C4C(=O)CCC5)c3)C3=C2CCCC3=O)c1 | inactive | 9 mm | 8 mm | 10 mm | inactive | 10 mm | inactive | 27 mm | 17 mm | 12 mm | – | – | – | –
15 | COc1ccccc1N1C2=C(C(=O)CCC2)C(c2cccc(C3C4=C(CCCC4=O)N(c4ccccc4OC)C4=C3C(=O)CCC4)c2)C2=C1CCCC2=O | inactive | inactive | inactive | inactive | inactive | inactive | inactive | inactive | inactive | inactive | – | – | – | –
16 | CC(=O)N1CCN(c2ccc(OCC3COC(Cn4ccnc4)(c4ccc(Cl)cc4Cl)O3)cc2)CC1 (configuration not stated) [KETOCONAZOLE] | – | – | – | – | – | – | – | 21 mm | 24 mm | – | – | – | – | –
17 | CC1(C)CC(=O)C2=C(C1)N(c1ccccc1C#N)C1=C(C(=O)CC(C)(C)C1)C2c1cccc(C2C3=C(CC(C)(C)CC3=O)N(c3ccccc3C#N)C3=C2C(=O)CC(C)(C)C3)c1 | inactive | 12 mm | 12 mm | 9 mm | inactive | 9 mm | 9 mm | 14 mm | 14 mm | 10 mm | – | – | – | –
18 | CC1(C)CC(=O)C2=C(C1)N(c1cccc(C(=O)O)c1)C1=C(C(=O)CC(C)(C)C1)C2c1cccc(C2C3=C(CC(C)(C)CC3=O)N(c3cccc(C(=O)O)c3)C3=C2C(=O)CC(C)(C)C3)c1 | 9 mm | 10 mm | 9 mm | 11 mm | 8 mm | 9 mm | inactive | 16 mm | 16 mm | 10 mm | – | – | – | –
